Assay results reported in the supplement of paper PMC10307832.

Columns and labels:
Assay in all cases: relative viability (nuclei count vs DMSO), 5 days (fraction); higher = more cells survive
BX 795 + Foretinib = compound: O=C(NCCCNc1nc(Nc2cccc(NC(=O)N3CCCC3)c2)ncc1I)c1cccs1 [BX 795] + COc1cc2c(Oc3ccc(NC(=O)C4(C(=O)Nc5ccc(F)cc5)CC4)cc3F)ccnc2cc1OCCCN1CCOCC1 [Foretinib] (partner 0.25 µM)
Procedure, shortened: (§1)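 Relative viability divides the nuclei count in treated wells by that in vehicle wells. Lung cancer cell lines were seeded in 1536-well plates, dosed by pin tool the next day, and fixed and stained after 5 days in one step with final 0.05% Triton X-100, 1% formaldehyde and 1 ug/ml Hoechst. Dosing was a single drug or a fixed anchor-drug dose plus five library-drug doses (not always all listed) in √10 steps, and values are medians of duplicate plates imaged at 4×.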

BX 795 + Vorinostat = compound: O=C(NCCCNc1nc(Nc2cccc(NC(=O)N3CCCC3)c2)ncc1I)c1cccs1 [BX 795] + O=C(CCCCCCC(=O)Nc1ccccc1)NO [Vorinostat] (partner 1 µM)
Procedure, shortened: as §1

BX 795 + Pemetrexed = compound: O=C(NCCCNc1nc(Nc2cccc(NC(=O)N3CCCC3)c2)ncc1I)c1cccs1 [BX 795] + Nc1nc2[nH]cc(CCc3ccc(C(=O)N[C@@H](CCC(=O)O)C(=O)O)cc3)c2c(=O)[nH]1 [Pemetrexed] (partner 0.2 µM)
Procedure, shortened: as §1

BX 795 + Luminespib = compound: O=C(NCCCNc1nc(Nc2cccc(NC(=O)N3CCCC3)c2)ncc1I)c1cccs1 [BX 795] + CCNC(=O)c1noc(-c2cc(C(C)C)c(O)cc2O)c1-c1ccc(CN2CCOCC2)cc1 [Luminespib] (partner 0.01 µM)
Procedure, shortened: as §1

BX 795 + Palbociclib = compound: O=C(NCCCNc1nc(Nc2cccc(NC(=O)N3CCCC3)c2)ncc1I)c1cccs1 [BX 795] + CC(=O)c1c(C)c2cnc(Nc3ccc(N4CCNCC4)cn3)nc2n(C2CCCC2)c1=O [Palbociclib] (partner 0.5 µM)
Procedure, shortened: as §1

Cell Line: NCI-H2087
- relative viability (BX 795 + Foretinib; first compound 0.04 µM): 1.06
- relative viability (BX 795 + Foretinib; first compound 0.1265 µM): 1.13
- relative viability (BX 795 + Foretinib; first compound 0.4 µM): 1.24
- relative viability (BX 795 + Foretinib; first compound 1.265 µM): 0.623
- relative viability (BX 795 + Vorinostat; first compound 0.04 µM): 0.762
- relative viability (BX 795 + Vorinostat; first compound 0.1265 µM): 1.06
- relative viability (BX 795 + Vorinostat; first compound 0.4 µM): 0.95
- relative viability (BX 795 + Vorinostat; first compound 1.265 µM): 0.587
- relative viability (BX 795 + Pemetrexed; first compound 0.04 µM): 0.695
- relative viability (BX 795 + Pemetrexed; first compound 0.1265 µM): 0.655
- relative viability (BX 795 + Pemetrexed; first compound 0.4 µM): 0.696
- relative viability (BX 795 + Pemetrexed; first compound 1.265 µM): 0.654
- relative viability (BX 795 + Luminespib; first compound 0.04 µM): 0.188
- relative viability (BX 795 + Luminespib; first compound 0.1265 µM): 0.199
- relative viability (BX 795 + Luminespib; first compound 0.4 µM): 0.157
- relative viability (BX 795 + Luminespib; first compound 1.265 µM): 0.147
- relative viability (BX 795 + Palbociclib; first compound 0.04 µM): 0.219
- relative viability (BX 795 + Palbociclib; first compound 0.1265 µM): 0.248
- relative viability (BX 795 + Palbociclib; first compound 0.4 µM): 0.322
- relative viability (BX 795 + Palbociclib; first compound 1.265 µM): 0.209

Cell Line: NCI-H838
- relative viability (BX 795 + Foretinib; first compound 0.04 µM): 0.952
- relative viability (BX 795 + Foretinib; first compound 0.1265 µM): 0.924
- relative viability (BX 795 + Foretinib; first compound 0.4 µM): 0.917
- relative viability (BX 795 + Foretinib; first compound 1.265 µM): 0.413
- relative viability (BX 795 + Vorinostat; first compound 0.04 µM): 0.737
- relative viability (BX 795 + Vorinostat; first compound 0.1265 µM): 0.69
- relative viability (BX 795 + Vorinostat; first compound 0.4 µM): 0.642
- relative viability (BX 795 + Vorinostat; first compound 1.265 µM): 0.201
- relative viability (BX 795 + Pemetrexed; first compound 0.04 µM): 0.254
- relative viability (BX 795 + Pemetrexed; first compound 0.1265 µM): 0.249
- relative viability (BX 795 + Pemetrexed; first compound 0.4 µM): 0.189
- relative viability (BX 795 + Pemetrexed; first compound 1.265 µM): 0.184
- relative viability (BX 795 + Luminespib; first compound 0.04 µM): 0.255
- relative viability (BX 795 + Luminespib; first compound 0.1265 µM): 0.292
- relative viability (BX 795 + Luminespib; first compound 0.4 µM): 0.226
- relative viability (BX 795 + Luminespib; first compound 1.265 µM): 0.181
- relative viability (BX 795 + Palbociclib; first compound 0.04 µM): 0.231
- relative viability (BX 795 + Palbociclib; first compound 0.1265 µM): 0.234
- relative viability (BX 795 + Palbociclib; first compound 0.4 µM): 0.197
- relative viability (BX 795 + Palbociclib; first compound 1.265 µM): 0.172

Cell Line: NCI-H23
- relative viability (BX 795 + Foretinib; first compound 0.04 µM): 0.943
- relative viability (BX 795 + Foretinib; first compound 0.1265 µM): 0.872
- relative viability (BX 795 + Foretinib; first compound 0.4 µM): 1
- relative viability (BX 795 + Foretinib; first compound 1.265 µM): 0.472
- relative viability (BX 795 + Vorinostat; first compound 0.04 µM): 0.583
- relative viability (BX 795 + Vorinostat; first compound 0.1265 µM): 0.651
- relative viability (BX 795 + Vorinostat; first compound 0.4 µM): 0.376
- relative viability (BX 795 + Vorinostat; first compound 1.265 µM): 0.285
- relative viability (BX 795 + Pemetrexed; first compound 0.04 µM): 0.559
- relative viability (BX 795 + Pemetrexed; first compound 0.1265 µM): 0.61
- relative viability (BX 795 + Pemetrexed; first compound 0.4 µM): 0.418
- relative viability (BX 795 + Pemetrexed; first compound 1.265 µM): 0.502
- relative viability (BX 795 + Luminespib; first compound 0.1265 µM): 0.207
- relative viability (BX 795 + Luminespib; first compound 0.4 µM): 0.216
- relative viability (BX 795 + Luminespib; first compound 1.265 µM): 0.211
- relative viability (BX 795 + Palbociclib; first compound 0.04 µM): 0.457
- relative viability (BX 795 + Palbociclib; first compound 0.1265 µM): 0.43
- relative viability (BX 795 + Palbociclib; first compound 0.4 µM): 0.567
- relative viability (BX 795 + Palbociclib; first compound 1.265 µM): 0.464

Cell Line: NCI-H1915
- relative viability (BX 795 + Foretinib; first compound 0.04 µM): 1.07
- relative viability (BX 795 + Foretinib; first compound 0.1265 µM): 1.1
- relative viability (BX 795 + Foretinib; first compound 0.4 µM): 1.08
- relative viability (BX 795 + Foretinib; first compound 1.265 µM): 0.995
- relative viability (BX 795 + Vorinostat; first compound 0.04 µM): 0.534
- relative viability (BX 795 + Vorinostat; first compound 0.1265 µM): 0.51
- relative viability (BX 795 + Vorinostat; first compound 0.4 µM): 0.525
- relative viability (BX 795 + Vorinostat; first compound 1.265 µM): 0.49
- relative viability (BX 795 + Pemetrexed; first compound 0.04 µM): 0.347
- relative viability (BX 795 + Pemetrexed; first compound 0.1265 µM): 0.458
- relative viability (BX 795 + Pemetrexed; first compound 0.4 µM): 0.304
- relative viability (BX 795 + Pemetrexed; first compound 1.265 µM): 0.442
- relative viability (BX 795 + Luminespib; first compound 0.04 µM): 0.688
- relative viability (BX 795 + Luminespib; first compound 0.1265 µM): 0.891
- relative viability (BX 795 + Luminespib; first compound 0.4 µM): 0.71
- relative viability (BX 795 + Luminespib; first compound 1.265 µM): 0.624
- relative viability (BX 795 + Palbociclib; first compound 0.04 µM): 0.63
- relative viability (BX 795 + Palbociclib; first compound 0.1265 µM): 0.501
- relative viability (BX 795 + Palbociclib; first compound 0.4 µM): 0.637
- relative viability (BX 795 + Palbociclib; first compound 1.265 µM): 0.485
